# Experimental data as given in patent publication US20010010919A1 (priority 1998, published 2001).
# Entries after “also recorded” stand apart in the source; their conditions may differ.
# Tests used:
# [1] = Meunier et al., Nature 377,532-535 (1995); cited from earlier work
# Swiss-Webster mice [2] = experiment: Reversal of morphine analgesia, 49° C. TW test; type: in vivo, mouse
# C57BL/6J mice = experiment: Precipitation of withdrawal in morphine dependent mice (withdrawal jumping); type: in vivo, mouse
# mice [3] = experiment: Nociception in mice (hot plate, toe- and tail-pinch) after icv or intrathecal administration; type: in vivo, mouse
# Swiss-Webster mice [4] = experiment: Tail-withdrawal (TW) test 46° C., stress-induced analgesia; type: in vivo, mouse; conditions: for hyperalgesia: 46° C. TW test; for effect on the 4 s post-injection increase in TW latency (stress-induced analgesia): OFQ 10 nmole icv, naloxone 1 mg/kg sc
# Protocol: The latency to respond to the heat stimulus by a vigorous flexion of the tail was measured to the nearest 0.1 s by an experienced observer blind to the drug condition of the animal. Mice were lightly restrained in a cloth/cardboard holder during testing. In the absence of a withdrawal reflex or other indication of distress, the tail was removed from the water after a cut-off latency of 15 s. To improve accuracy, three separate TW latency determinations, separated by 20 s, were made and averaged at each test. […] Because there were no changes in post-injection TW latencies in any group with repeated testing at 10, 20 and 30 min post-injection, data from these time points were pooled.
# mice [5] = experiment: Acetic acid abdominal constriction (AC, writhing) test; type: in vivo, mouse; conditions: for effect on SIA (decreased number of abdominal constrictions): OFQ 2.5 nmole icv, NAL sc
# Protocol: This test is an extremely sensitive measure of tonic, chemically-induced pain stimulus.
# The AC assay was a modification of the technique originally described by Koster et al. Mice (N=9-15 per group) were acclimated to individual cylindrical Plexiglass observation chambers for >30 minutes. […] A separate group of Sal-treated mice received no icv injection (None). Between 5 and 10 minutes later, all mice were given an intraperitoneal (ip) injection of 0.9% acetic acid and placed back in their observation chambers. For the next 30 minutes, the number of abdominal constrictions (lengthwise stretches of the torso with a concomitant concave arching of the back) were counted and recorded. Four mice in separate chambers were observed simultaneously by a single experimenter blind to drug condition.
# DBA/2J mice = experiment: Morphine hypothermia and Straub tail, core body temperature
# mice [6] = experiment: Open-field observation and locomotor activity after icv administration; type: in vivo, mouse
# Protocol: For these experiments, the peptide was administered intracerebroventricularly (icv) and intrathecally (it) in mice. Immediately after peptide administration, mice were placed in transparent boxes in groups of three, and behavioral signs recorded. Emphasis was placed on signs indicative of depressant, stimulant and autonomic effects of the peptide (as described by Irwin, 1968, Psychopharmacologia 13: 222). […] The effects of the peptide on horizontal and vertical locomotor activity was measured using Digiscan Animal Activity Monitors (Omnitech, Columbus, Ohio). The values for horizontal and vertical locomotor activity represent the total number of interruptions of the horizontal and vertical sensors during the first 10 minutes following administration of the peptide. Data are shown as the mean±standard error of the mean.
# [7] = tested on: untransfected COS-7 and Ltk^− cells; experiment: Radioligand binding to membranes of untransfected cells (control); conditions: untransfected cell membranes
# [8] = molecular target: T1, novel mammalian opioid receptor (LC132, OFQR) (Rattus norvegicus, UniProt P35370); type: binding
# T1 construct: The entire coding region of the receptor cDNA insert was subcloned into the RcRVS vector; expressed in transfected cells
# T1 sequence (P35370 whole entry): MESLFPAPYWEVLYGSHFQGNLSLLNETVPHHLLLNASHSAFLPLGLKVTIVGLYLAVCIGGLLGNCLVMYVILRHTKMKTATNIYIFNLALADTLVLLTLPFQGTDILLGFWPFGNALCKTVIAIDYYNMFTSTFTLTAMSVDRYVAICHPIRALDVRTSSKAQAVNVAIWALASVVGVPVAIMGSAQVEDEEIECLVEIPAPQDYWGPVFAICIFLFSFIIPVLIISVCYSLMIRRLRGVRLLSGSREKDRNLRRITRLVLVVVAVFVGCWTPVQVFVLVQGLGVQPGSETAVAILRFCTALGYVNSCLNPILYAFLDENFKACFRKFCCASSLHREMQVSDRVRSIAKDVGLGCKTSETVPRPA
compound,measurement,setting,value
CC(C)C[C@H](NC(=O)[C@H](CCCCN)NC(=O)[C@H](CCCNC(=N)N)NC(=O)[C@H](C)NC(=O)[C@H](CO)NC(=O)[C@H](CCCCN)NC(=O)[C@H](CCCNC(=N)N)NC(=O)[C@H](C)NC(=O)CNC(=O)[C@@H](NC(=O)[C@H](Cc1ccccc1)NC(=O)CNC(=O)CNC(=O)[C@@H](N)Cc1ccccc1)[C@@H](C)O)C(=O)N[C@@H](C)C(=O)N[C@@H](CC(N)=O)C(=O)N[C@@H](CCC(N)=O)C(=O)O [OFQ],effect on pain sensitivity in tail flick and hot-plate assays,[1],induces hyperalgesia
same,reversal of morphine analgesia,Swiss-Webster mice [2]; OFQ 2.5-25 nmole i.c.v.,reversed this analgesia in a dose-dependent manner
same,"ED50, 50% inhibition of 5 mg/kg morphine analgesia","Swiss-Webster mice [2]; i.c.v. in a 2.5 μl volume, linear regression",7.5 nmol
same,precipitated withdrawal syndrome (withdrawal jumping),"C57BL/6J mice; OFQ 0.1-10 nmole i.c.v., 20-min testing period","equally effective in the precipitation of withdrawal; also recorded: unequivocal, albeit modest in comparison to that produced by systemic naloxone"
same,other withdrawal symptoms,C57BL/6J mice; OFQ i.c.v.,"wet-dog shakes and ptosis, were observed"
same,toe- and tail-pinch reflexes,mice [3]; all doses tested,normal toe- and tail-pinch reflexes
same,analgesic effect in hot plate test,"mice [3]; icv, hot plate 58° C., cutoff 60 sec",little analgesic effect
same,"analgesic effect, intrathecal",mice [3]; intrathecally 2.5-10 nmole/4 μL/animal,No analgesic effect
same,hyperalgesia,Swiss-Webster mice [4],no evidence of hyperalgesia
same,effect on the 4 s post-injection increase in TW latency (stress-induced analgesia),Swiss-Webster mice [4],attenuated
same,inhibition of the analgesic effect of morphine,"mice [5]; 2.5 nmole icv, within 30 minutes",pharmaceutically sufficient to inhibit the analgesic effect of morphine
same,effect on SIA (decreased number of abdominal constrictions),mice [5],reversed
same,reversal of 20 mg/kg MOR hypothermia,"DBA/2J mice; 5 and 10 nmole i.c.v., 60-90 minutes post-MOR injection",significantly reversed
same,effect of the substance itself on body temperature,DBA/2J mice; 5 or 10 nmole i.c.v.,did not affect body temperature
same,elimination of morphine Straub tail,DBA/2J mice; at least 5 nmole OFQ icv,effectively eliminated Straub tail in the vast majority of animals
same,time to elimination of Straub tail following icv injection,DBA/2J mice; at least 5 nmole OFQ icv,1 to 2 min
same,horizontal and vertical locomotion,"mice [6]; icv 0.1-10 nmole/2 μL/mouse, first 10 minutes",decrease of both horizontal and vertical locomotion
same,open-field behavioral signs,"mice [6]; larger doses, above 1 nmole/2 μL/mouse","profound influence on locomotor activity, as well as a decrease in muscle tone, a loss of righting reflex, and ataxia"
"C=CCN1CC[C@]23c4c5ccc(O)c4O[C@H]2C(=O)CC[C@@]3(O)[C@H]1C5 [naloxone, reference compound]",endogenous binding of the radiolabeled ligand,[7],endogenous low levels of specific
same,hyperalgesia,Swiss-Webster mice [4],In no case did any mouse treated with OFQ or naloxone exhibit hyperalgesia
same,effect on the 4 s post-injection increase in TW latency (stress-induced analgesia),Swiss-Webster mice [4],attenuated
same,effect on SIA (decreased number of abdominal constrictions),mice [5],reversed
CN1CC[C@]23c4c5ccc(O)c4O[C@H]2[C@@H](O)C=C[C@H]3[C@H]1C5 [morphine],analgesia produced,Swiss-Webster mice [2]; morphine sulfate 5 mg/kg s.c.,profound analgesia
same,duration of analgesia,Swiss-Webster mice [2]; morphine sulfate 5 mg/kg s.c.,about 2 hours
same,time of peak analgesia post-injection,Swiss-Webster mice [2]; morphine sulfate 5 mg/kg s.c.,30 min
same,Straub tail production,DBA/2J mice; morphine 20 mg/kg,produced Straub tail
same,decrease in body temperature,DBA/2J mice; morphine 20 mg/kg i.p.,6 °C
"C[C@@H](NC(=O)[C@@H](N)Cc1ccc(O)cc1)C(=O)NCC(=O)N(C)[C@@H](Cc1ccccc1)C(=O)NCCO [DAMGO, Tyr-DAla-Gly-Met-Phe-Gly-ol]",specific binding of the radioactively-labeled ligand,[8],no specific binding
"c[D-penicillamine^2, D-penicillamine^5]enkephalin [DPDPE]",specific binding of the radioactively-labeled ligand,[8],no specific binding
CCC(=O)C(CC(C)N(C)C)(c1ccccc1)c1ccccc1 (centres unmarked) [methadone],endogenous binding of the radiolabeled ligand,[7],no or negligible amounts of endogenous methadone binding
same,Bmax,[8],400-450 fentomoles/μg protein
same,specific binding of the radioactively-labeled ligand,[8],specific binding was found
"β-endorphin: endogenous opioid peptide, 125I-labeled",specific binding of the radioactively-labeled ligand,[8],no specific binding
CN1CC[C@]23c4c5ccc(O)c4O[C@H]2[C@@H](O)CC[C@H]3[C@H]1C5 [dihydromorphine],specific binding of the radioactively-labeled ligand,[8],no specific binding
CCC12CCN(CC3(O)CC3)C(Cc3ccc(O)cc31)C2(C)C (centres unmarked) [bremacozine],specific binding of the radioactively-labeled ligand,[8],no specific binding
